Experimental data: patent US10906873B2, “Substituted cyclic amides as herbicides” (FMC Corporation, priority 2015, dated 2021)

Columns and labels:
Assay type in all cases: in vivo
[1] = tested on: barnyardgrass (Echinochloa crus-galli); assay: Test A preemergence, barnyardgrass; conditions: 0 to 100 scale
Source text: (§1) Seeds of plant species selected from barnyardgrass (Echinochloa crus-galli), crabgrass (large crabgrass, Digitaria sanguinalis), kochia (Kochia scoparia), ragweed (common ragweed, Ambrosia elatior), morningglory (Ipomoea spp.), velvetleaf (Abutilon theophrasti), ryegrass, It. (Italian ryegrass, Lolium multiflorum), foxtail, giant (giant foxtail, Setaria faberii), wheat (Triticum aestivum), corn (Zea mays), and pigweed (Amaranthus retroflexus), were planted into a blend of loam soil and sand and treated preemergence with a directed soil spray using test chemicals formulated in a non-phytotoxic solvent mixture which included a surfactant. At the same time, plants selected from these crop and weed species and also blackgrass (Alopecurus myosuroides), and galium (catchweed bedstraw, Galium aparine), were planted in pots containing the same blend of loam soil and sand and treated with postemergence applications of test chemicals formulated in the same manner. Plants ranged in height from 2 to 10 cm and were in the one- to two-leaf stage for the postemergence treatment. Treated plants and untreated controls were maintained in a greenhouse for approximately 10 d, after which time all treated plants were compared to untreated controls and visually evaluated for injury. Plant response ratings, summarized in Table A, are based on a 0 to 100 scale where 0 is no effect and 100 is complete control. A dash (-) response means no test result.

kochia (Kochia scoparia) [2] = assay: Test A preemergence, kochia; conditions: 0 to 100 scale
Source text: as §1

[3] = tested on: ragweed (common ragweed, Ambrosia elatior); assay: Test A preemergence, ragweed; conditions: 0 to 100 scale
Source text: as §1

[4] = tested on: ryegrass, It. (Italian ryegrass, Lolium multiflorum); assay: Test A preemergence, ryegrass, It.; conditions: 0 to 100 scale
Source text: as §1

[5] = tested on: foxtail, giant (giant foxtail, Setaria faberii); assay: Test A preemergence, foxtail, giant; conditions: 0 to 100 scale
Source text: as §1

[6] = tested on: pigweed (Amaranthus retroflexus); assay: Test A preemergence, pigweed; conditions: 0 to 100 scale
Source text: as §1

[7] = tested on: barnyardgrass (Echinochloa crus-galli); assay: Test A postemergence, barnyardgrass; conditions: 0 to 100 scale
Source text: as §1

kochia (Kochia scoparia) [8] = assay: Test A postemergence, kochia; conditions: 0 to 100 scale
Source text: as §1

[9] = tested on: ragweed (common ragweed, Ambrosia elatior); assay: Test A postemergence, ragweed; conditions: 0 to 100 scale
Source text: as §1

[10] = tested on: ryegrass, It. (Italian ryegrass, Lolium multiflorum); assay: Test A postemergence, ryegrass, It.; conditions: 0 to 100 scale
Source text: as §1

[11] = tested on: foxtail, giant (giant foxtail, Setaria faberii); assay: Test A postemergence, foxtail, giant; conditions: 0 to 100 scale
Source text: as §1

[12] = tested on: wheat (Triticum aestivum); assay: Test A postemergence, wheat; conditions: 0 to 100 scale
Source text: as §1

corn (Zea mays) = assay: Test A postemergence, corn; conditions: 0 to 100 scale
Source text: as §1

[13] = tested on: pigweed (Amaranthus retroflexus); assay: Test A postemergence, pigweed; conditions: 0 to 100 scale
Source text: as §1

[14] = tested on: blackgrass (Alopecurus myosuroides); assay: Test A postemergence, blackgrass; conditions: 0 to 100 scale
Source text: as §1

[15] = tested on: galium (catchweed bedstraw, Galium aparine); assay: Test A postemergence, galium; conditions: 0 to 100 scale
Source text: as §1

[16] = tested on: barnyardgrass (Echinochloa crus-galli); assay: Test B flooded paddy test, barnyardgrass; conditions: Flood, scale of 0 to 100 where 0 is no effect and 100 is complete control, 13 to 15 d
Procedure: (§2) Plant species in the flooded paddy test selected from rice (Oryza sativa), sedge, umbrella (small-flower umbrella sedge, Cyperus difformis), ducksalad (Heteranthera limosa), and barnyardgrass (Echinochloa crus-galli) were grown to the 2-leaf stage for testing. At time of treatment, test pots were flooded to 3 cm above the soil surface, treated by application of test compounds directly to the paddy water, and then maintained at that water depth for the duration of the test. Treated plants and controls were maintained in a greenhouse for 13 to 15 d, after which time all species were compared to controls and visually evaluated. Plant response ratings, summarized in Table B, are based on a scale of 0 to 100 where 0 is no effect and 100 is complete control. A dash (-) response means no test result.

[17] = tested on: ducksalad (Heteranthera limosa); assay: Test B flooded paddy test, ducksalad; conditions: Flood, scale of 0 to 100 where 0 is no effect and 100 is complete control, 13 to 15 d
Procedure: as §2

rice (Oryza sativa) = assay: Test B flooded paddy test, rice; conditions: Flood, scale of 0 to 100 where 0 is no effect and 100 is complete control, 13 to 15 d
Procedure: as §2

[18] = tested on: sedge, umbrella (small-flower umbrella sedge, Cyperus difformis); assay: Test B flooded paddy test, sedge, umbrella; conditions: Flood, scale of 0 to 100 where 0 is no effect and 100 is complete control, 13 to 15 d
Procedure: as §2

Row | SMILES | Plant response rating, Barnyardgrass ([1]; 125 g ai/ha) | Plant response rating, Barnyardgrass ([1]; 500 g ai/ha) | Plant response rating, Kochia (kochia (Kochia scoparia) [2]; 125 g ai/ha) | Plant response rating, Kochia (kochia (Kochia scoparia) [2]; 500 g ai/ha) | Plant response rating, Ragweed ([3]; 125 g ai/ha) | Plant response rating, Ragweed ([3]; 500 g ai/ha) | Plant response rating, Ryegrass, It. ([4]; 125 g ai/ha) | Plant response rating, Ryegrass, It. ([4]; 500 g ai/ha) | Plant response rating, Foxtail, Giant ([5]; 125 g ai/ha) | Plant response rating, Foxtail, Giant ([5]; 500 g ai/ha) | Plant response rating, Pigweed ([6]; 125 g ai/ha) | Plant response rating, Pigweed ([6]; 500 g ai/ha) | Plant response rating, Barnyardgrass ([7]; 125 g ai/ha) | Plant response rating, Barnyardgrass ([7]; 500 g ai/ha) | Plant response rating, Ragweed ([9]; 125 g ai/ha) | Plant response rating, Ragweed ([9]; 500 g ai/ha) | Plant response rating, Ryegrass, It. ([10]; 125 g ai/ha) | Plant response rating, Ryegrass, It. ([10]; 500 g ai/ha) | Plant response rating, Foxtail, Giant ([11]; 125 g ai/ha) | Plant response rating, Foxtail, Giant ([11]; 500 g ai/ha) | further results
1 | O=C1NCC(Cc2ccccc2C(F)(F)F)C1C(=O)Nc1ccccc1C(F)(F)F (centres unmarked) [Compound 5] | 0 | 0 | 0 | 0 | 0 | 0 | 0 | 0 | 0 | 0 | 0 | 0 | 0 | 0 | 0 | 0 | 0 | 0 | 0 | 0 | Plant response rating, Kochia (kochia (Kochia scoparia) [8]; 125 g ai/ha): 0; Plant response rating, Kochia (kochia (Kochia scoparia) [8]; 500 g ai/ha): 0; Plant response rating, Wheat ([12]; 125 g ai/ha): 0; Plant response rating, Wheat ([12]; 500 g ai/ha): 0; Plant response rating, Corn (corn (Zea mays); 125 g ai/ha): 0; Plant response rating, Corn (corn (Zea mays); 500 g ai/ha): 0; Plant response rating, Pigweed ([13]; 125 g ai/ha): 0; Plant response rating, Pigweed ([13]; 500 g ai/ha): 0; Plant response rating, Blackgrass ([14]; 125 g ai/ha): 0; Plant response rating, Blackgrass ([14]; 500 g ai/ha): 0; Plant response rating, Galium ([15]; 125 g ai/ha): 0; Plant response rating, Galium ([15]; 500 g ai/ha): 0; Plant response rating, Barnyardgrass ([16]; 500 g ai/ha): 0; Plant response rating, Ducksalad ([17]; 500 g ai/ha): 0; Plant response rating, Rice (rice (Oryza sativa); 500 g ai/ha): 0; Plant response rating, Sedge, Umbrella ([18]; 500 g ai/ha): 0
2 | O=C1NCC(Cc2ccccc2C(F)(F)F)C1C(=O)Nc1cccc(F)c1F (centres unmarked) [Compound 9] | 0 | 50 | 0 | 50 | 0 | 30 | 0 | 0 | 0 | 50 | 0 | 0 | 10 | 60 | 0 | 0 | 0 | 0 | 0 | 0 | Plant response rating, Kochia (kochia (Kochia scoparia) [8]; 125 g ai/ha): 0; Plant response rating, Kochia (kochia (Kochia scoparia) [8]; 500 g ai/ha): 30; Plant response rating, Wheat ([12]; 125 g ai/ha): 0; Plant response rating, Wheat ([12]; 500 g ai/ha): 0; Plant response rating, Corn (corn (Zea mays); 125 g ai/ha): 0; Plant response rating, Corn (corn (Zea mays); 500 g ai/ha): 0; Plant response rating, Pigweed ([13]; 125 g ai/ha): 0; Plant response rating, Pigweed ([13]; 500 g ai/ha): 0; Plant response rating, Blackgrass ([14]; 125 g ai/ha): 0; Plant response rating, Blackgrass ([14]; 500 g ai/ha): 0; Plant response rating, Galium ([15]; 125 g ai/ha): 0; Plant response rating, Galium ([15]; 500 g ai/ha): 0; Plant response rating, Barnyardgrass ([16]; 500 g ai/ha): 0; Plant response rating, Ducksalad ([17]; 500 g ai/ha): 40; Plant response rating, Rice (rice (Oryza sativa); 500 g ai/ha): 0; Plant response rating, Sedge, Umbrella ([18]; 500 g ai/ha): 0
3 | O=C1NCC(C#Cc2ccc(F)cc2)C1C(=O)Nc1ccccc1F (centres unmarked) [Compound 19] | 0 | 50 | 0 | 0 | 0 | 0 | 0 | 0 | 0 | 20 | 0 | 0 | 0 | 40 | 0 | 0 | 0 | 0 | 0 | 20 | Plant response rating, Kochia (kochia (Kochia scoparia) [8]; 125 g ai/ha): 0; Plant response rating, Kochia (kochia (Kochia scoparia) [8]; 500 g ai/ha): 0; Plant response rating, Wheat ([12]; 125 g ai/ha): 0; Plant response rating, Wheat ([12]; 500 g ai/ha): 0; Plant response rating, Corn (corn (Zea mays); 125 g ai/ha): 0; Plant response rating, Corn (corn (Zea mays); 500 g ai/ha): 0; Plant response rating, Pigweed ([13]; 125 g ai/ha): 0; Plant response rating, Pigweed ([13]; 500 g ai/ha): 0; Plant response rating, Blackgrass ([14]; 125 g ai/ha): 0; Plant response rating, Blackgrass ([14]; 500 g ai/ha): 0; Plant response rating, Galium ([15]; 125 g ai/ha): 0; Plant response rating, Galium ([15]; 500 g ai/ha): 0; Plant response rating, Barnyardgrass ([16]; 250 g ai/ha): 0; Plant response rating, Ducksalad ([17]; 250 g ai/ha): 0; Plant response rating, Rice (rice (Oryza sativa); 250 g ai/ha): 0; Plant response rating, Sedge, Umbrella ([18]; 250 g ai/ha): 0
4 | O=C1NCC(/C=C/c2ccc(F)cc2)C1C(=O)Nc1ccccc1F (centres unmarked) [Compound 27] | 0 | 50 | 0 | 40 | 0 | 30 | 0 | 20 | 0 | 60 | 0 | 0 | 0 | 60 | 0 | 0 | 0 | 0 | 0 | 70 | Plant response rating, Wheat ([12]; 125 g ai/ha): 0; Plant response rating, Wheat ([12]; 500 g ai/ha): 0; Plant response rating, Corn (corn (Zea mays); 125 g ai/ha): 0; Plant response rating, Corn (corn (Zea mays); 500 g ai/ha): 0; Plant response rating, Pigweed ([13]; 125 g ai/ha): 0; Plant response rating, Pigweed ([13]; 500 g ai/ha): 20; Plant response rating, Blackgrass ([14]; 125 g ai/ha): 0; Plant response rating, Blackgrass ([14]; 500 g ai/ha): 0; Plant response rating, Galium ([15]; 125 g ai/ha): 0; Plant response rating, Galium ([15]; 500 g ai/ha): 0; Plant response rating, Barnyardgrass ([16]; 250 g ai/ha): 0; Plant response rating, Ducksalad ([17]; 250 g ai/ha): 80; Plant response rating, Rice (rice (Oryza sativa); 250 g ai/ha): 0; Plant response rating, Sedge, Umbrella ([18]; 250 g ai/ha): 0
5 | O=C1NCC(/C=C/c2cccc(F)c2)C1C(=O)Nc1ccccc1F (centres unmarked) [Compound 24] | 30 | 70 | 0 | 20 | 0 | 30 | 0 | 0 | 60 | 90 | 0 | 0 | 0 | 70 | 0 | 0 | 0 | 0 | 30 | 80 | Plant response rating, Wheat ([12]; 125 g ai/ha): 0; Plant response rating, Wheat ([12]; 500 g ai/ha): 0; Plant response rating, Corn (corn (Zea mays); 125 g ai/ha): 0; Plant response rating, Corn (corn (Zea mays); 500 g ai/ha): 0; Plant response rating, Pigweed ([13]; 125 g ai/ha): 0; Plant response rating, Pigweed ([13]; 500 g ai/ha): 0; Plant response rating, Blackgrass ([14]; 125 g ai/ha): 0; Plant response rating, Blackgrass ([14]; 500 g ai/ha): 0; Plant response rating, Galium ([15]; 125 g ai/ha): 0; Plant response rating, Galium ([15]; 500 g ai/ha): 0; Plant response rating, Barnyardgrass ([16]; 250 g ai/ha): 70; Plant response rating, Ducksalad ([17]; 250 g ai/ha): 90; Plant response rating, Rice (rice (Oryza sativa); 250 g ai/ha): 0; Plant response rating, Sedge, Umbrella ([18]; 250 g ai/ha): 0
